Reference: US20230203059A1, “MACROCYCLIC JAK INHIBITOR AND USES THEREOF” (Biopolar Hongye (Guangdong) Pharmaceutical Co. Ltd., priority 2020, published 2023)

How the values were obtained:
Type in all cases: biochemical
TYK2 = TYK2 (Homo sapiens, UniProt P29597); assay: JAK kinase activity, homogeneous time-resolved fluorescence (TYK2 reaction system); conditions: ATP 2 μM, TYK2 protein 0.2 ng/μL; read-out: TYK 2 activity
Outline: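 Activity read as the 665 nm/615 nm ratio after adding EDTA-containing detection mix with anti-phospho-substrate antibody and XL-615. Beforehand, 0.2 ng/μL TYK2, 2 μM ATP, substrate and compound reacted 1 h in pH 7.0 Hepes buffer with MgCl2 and DTT. IC50 fitted with Hill-slope equation.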

JAK1 = JAK1 (Homo sapiens, UniProt P23458); assay: JAK kinase activity, homogeneous time-resolved fluorescence (JAK1 reaction system); conditions: ATP 2 μM, JAK1 protein 0.2 ng/μL; read-out: JAK 1 activity
Outline: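 Kinase activity read as the 665 nm/615 nm time-resolved fluorescence ratio (320 nm excitation) after EDTA-containing antibody and XL-615 addition. Reaction ran 1 h at pH 7.0 (Hepes, MgCl2, DTT) with 0.2 ng/μL JAK1 and ATP at 2 μM. IC50 derived by Hill-slope fit.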

JAK3 = target: T1, JAK3 (Homo sapiens, UniProt P52333); assay: JAK kinase activity, homogeneous time-resolved fluorescence (JAK3 reaction system); conditions: ATP 2 μM, JAK3 protein 0.04 ng/μL; read-out: JAK 3 activity
T1 sequence (P52333 1-1124): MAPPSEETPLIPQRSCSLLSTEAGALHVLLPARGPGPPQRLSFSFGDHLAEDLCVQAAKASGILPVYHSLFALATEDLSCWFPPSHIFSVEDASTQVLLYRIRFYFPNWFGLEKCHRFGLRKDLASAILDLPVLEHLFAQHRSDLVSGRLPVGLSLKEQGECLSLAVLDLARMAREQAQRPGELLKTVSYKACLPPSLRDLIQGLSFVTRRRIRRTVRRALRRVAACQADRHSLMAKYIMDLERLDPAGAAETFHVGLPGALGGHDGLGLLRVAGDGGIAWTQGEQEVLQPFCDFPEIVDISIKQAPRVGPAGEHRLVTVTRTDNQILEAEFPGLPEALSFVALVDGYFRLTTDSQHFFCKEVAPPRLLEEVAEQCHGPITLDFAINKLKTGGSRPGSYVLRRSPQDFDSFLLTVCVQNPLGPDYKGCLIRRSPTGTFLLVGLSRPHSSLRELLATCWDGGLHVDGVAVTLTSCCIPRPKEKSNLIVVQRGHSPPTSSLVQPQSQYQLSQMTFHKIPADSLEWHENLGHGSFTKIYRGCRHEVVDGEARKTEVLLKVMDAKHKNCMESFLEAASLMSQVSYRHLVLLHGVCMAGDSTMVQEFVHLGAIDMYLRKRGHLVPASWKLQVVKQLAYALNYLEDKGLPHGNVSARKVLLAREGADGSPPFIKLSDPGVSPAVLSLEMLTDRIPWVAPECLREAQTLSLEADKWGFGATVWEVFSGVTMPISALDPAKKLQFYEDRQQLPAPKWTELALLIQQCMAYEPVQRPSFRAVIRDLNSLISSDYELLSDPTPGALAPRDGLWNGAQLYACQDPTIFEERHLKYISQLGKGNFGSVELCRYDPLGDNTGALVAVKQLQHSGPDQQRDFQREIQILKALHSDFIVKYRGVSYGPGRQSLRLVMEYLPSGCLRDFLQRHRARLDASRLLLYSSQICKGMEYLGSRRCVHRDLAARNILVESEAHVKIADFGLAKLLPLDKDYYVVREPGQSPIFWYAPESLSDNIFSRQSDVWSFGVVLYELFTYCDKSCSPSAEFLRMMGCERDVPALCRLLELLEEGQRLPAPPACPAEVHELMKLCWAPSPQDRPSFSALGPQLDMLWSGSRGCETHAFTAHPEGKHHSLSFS

JAK2 = JAK2 (Homo sapiens, UniProt O60674); assay: JAK kinase activity, homogeneous time-resolved fluorescence (JAK2 reaction system); conditions: ATP 2 μM, JAK2 protein 0.01 ng/μL
Outline: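 IC50 derived by Hill-equation fit of the 665/615 nm time-resolved fluorescence ratio after EDTA-containing detection mix with anti-phosphosubstrate antibody. Preceding 1 h reaction contained 2 μM ATP, 0.01 ng/μL JAK2, substrate, 50 mM Hepes pH 7.0, 5 mM MgCl2, 1 mM DTT.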

Sequence of JAK2 (O60674 whole entry): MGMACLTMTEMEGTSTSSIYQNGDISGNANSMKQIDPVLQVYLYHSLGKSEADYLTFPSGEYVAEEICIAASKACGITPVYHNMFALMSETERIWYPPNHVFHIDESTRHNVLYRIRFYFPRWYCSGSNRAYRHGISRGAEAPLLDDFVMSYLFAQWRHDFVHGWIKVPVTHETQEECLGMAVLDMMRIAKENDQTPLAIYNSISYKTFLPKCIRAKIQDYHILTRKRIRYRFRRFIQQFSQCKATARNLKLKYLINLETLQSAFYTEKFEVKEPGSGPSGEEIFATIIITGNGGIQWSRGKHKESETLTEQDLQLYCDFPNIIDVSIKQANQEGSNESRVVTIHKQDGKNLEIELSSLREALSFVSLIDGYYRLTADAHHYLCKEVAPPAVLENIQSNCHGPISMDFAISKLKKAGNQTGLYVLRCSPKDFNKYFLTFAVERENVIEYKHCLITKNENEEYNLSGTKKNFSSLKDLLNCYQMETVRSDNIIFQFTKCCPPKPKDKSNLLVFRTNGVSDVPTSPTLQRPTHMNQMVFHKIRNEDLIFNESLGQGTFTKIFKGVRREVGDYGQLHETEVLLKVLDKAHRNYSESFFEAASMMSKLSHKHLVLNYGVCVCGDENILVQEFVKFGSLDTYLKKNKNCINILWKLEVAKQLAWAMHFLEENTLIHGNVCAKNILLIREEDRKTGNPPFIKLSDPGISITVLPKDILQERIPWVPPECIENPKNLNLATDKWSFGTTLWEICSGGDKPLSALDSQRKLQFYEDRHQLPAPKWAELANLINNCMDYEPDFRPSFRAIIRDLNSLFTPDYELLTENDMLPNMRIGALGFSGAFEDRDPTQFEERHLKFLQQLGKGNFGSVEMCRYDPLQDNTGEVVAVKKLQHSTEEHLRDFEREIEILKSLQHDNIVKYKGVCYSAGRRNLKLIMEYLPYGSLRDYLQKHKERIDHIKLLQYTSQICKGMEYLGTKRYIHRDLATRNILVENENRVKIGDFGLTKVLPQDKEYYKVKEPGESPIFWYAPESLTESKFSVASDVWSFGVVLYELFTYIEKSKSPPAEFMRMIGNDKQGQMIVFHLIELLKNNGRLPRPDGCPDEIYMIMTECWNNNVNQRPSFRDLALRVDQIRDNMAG
Sequence of JAK1 (P23458 whole entry): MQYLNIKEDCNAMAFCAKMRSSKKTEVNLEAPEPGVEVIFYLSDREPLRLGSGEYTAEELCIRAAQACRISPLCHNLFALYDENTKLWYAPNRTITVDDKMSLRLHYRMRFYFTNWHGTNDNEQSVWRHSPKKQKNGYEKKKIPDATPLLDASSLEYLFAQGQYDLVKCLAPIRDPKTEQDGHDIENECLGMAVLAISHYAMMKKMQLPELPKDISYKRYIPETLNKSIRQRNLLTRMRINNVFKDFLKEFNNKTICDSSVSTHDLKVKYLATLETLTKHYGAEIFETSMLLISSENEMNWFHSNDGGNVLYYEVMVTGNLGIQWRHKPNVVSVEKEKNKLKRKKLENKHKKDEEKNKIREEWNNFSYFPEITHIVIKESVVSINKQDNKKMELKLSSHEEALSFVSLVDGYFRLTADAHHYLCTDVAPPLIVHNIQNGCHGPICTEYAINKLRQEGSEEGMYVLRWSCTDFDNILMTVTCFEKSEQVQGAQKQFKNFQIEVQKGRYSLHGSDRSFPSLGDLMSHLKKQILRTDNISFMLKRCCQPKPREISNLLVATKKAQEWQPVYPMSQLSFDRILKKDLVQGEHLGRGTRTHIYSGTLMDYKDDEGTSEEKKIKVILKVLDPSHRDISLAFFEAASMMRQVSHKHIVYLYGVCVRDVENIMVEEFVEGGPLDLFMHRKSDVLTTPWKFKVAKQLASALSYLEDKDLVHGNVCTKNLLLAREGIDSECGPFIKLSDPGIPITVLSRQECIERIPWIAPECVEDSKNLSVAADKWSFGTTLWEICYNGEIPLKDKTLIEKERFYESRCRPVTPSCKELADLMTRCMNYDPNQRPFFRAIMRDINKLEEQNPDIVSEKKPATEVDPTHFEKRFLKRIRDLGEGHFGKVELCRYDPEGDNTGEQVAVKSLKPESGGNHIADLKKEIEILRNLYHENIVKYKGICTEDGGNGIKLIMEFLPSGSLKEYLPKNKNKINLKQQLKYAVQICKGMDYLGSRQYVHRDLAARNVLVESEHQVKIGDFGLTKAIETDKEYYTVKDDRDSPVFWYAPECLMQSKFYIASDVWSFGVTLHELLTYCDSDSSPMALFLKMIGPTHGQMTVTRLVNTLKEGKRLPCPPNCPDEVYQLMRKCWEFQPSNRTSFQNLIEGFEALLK
Sequence of TYK2 (P29597 whole entry): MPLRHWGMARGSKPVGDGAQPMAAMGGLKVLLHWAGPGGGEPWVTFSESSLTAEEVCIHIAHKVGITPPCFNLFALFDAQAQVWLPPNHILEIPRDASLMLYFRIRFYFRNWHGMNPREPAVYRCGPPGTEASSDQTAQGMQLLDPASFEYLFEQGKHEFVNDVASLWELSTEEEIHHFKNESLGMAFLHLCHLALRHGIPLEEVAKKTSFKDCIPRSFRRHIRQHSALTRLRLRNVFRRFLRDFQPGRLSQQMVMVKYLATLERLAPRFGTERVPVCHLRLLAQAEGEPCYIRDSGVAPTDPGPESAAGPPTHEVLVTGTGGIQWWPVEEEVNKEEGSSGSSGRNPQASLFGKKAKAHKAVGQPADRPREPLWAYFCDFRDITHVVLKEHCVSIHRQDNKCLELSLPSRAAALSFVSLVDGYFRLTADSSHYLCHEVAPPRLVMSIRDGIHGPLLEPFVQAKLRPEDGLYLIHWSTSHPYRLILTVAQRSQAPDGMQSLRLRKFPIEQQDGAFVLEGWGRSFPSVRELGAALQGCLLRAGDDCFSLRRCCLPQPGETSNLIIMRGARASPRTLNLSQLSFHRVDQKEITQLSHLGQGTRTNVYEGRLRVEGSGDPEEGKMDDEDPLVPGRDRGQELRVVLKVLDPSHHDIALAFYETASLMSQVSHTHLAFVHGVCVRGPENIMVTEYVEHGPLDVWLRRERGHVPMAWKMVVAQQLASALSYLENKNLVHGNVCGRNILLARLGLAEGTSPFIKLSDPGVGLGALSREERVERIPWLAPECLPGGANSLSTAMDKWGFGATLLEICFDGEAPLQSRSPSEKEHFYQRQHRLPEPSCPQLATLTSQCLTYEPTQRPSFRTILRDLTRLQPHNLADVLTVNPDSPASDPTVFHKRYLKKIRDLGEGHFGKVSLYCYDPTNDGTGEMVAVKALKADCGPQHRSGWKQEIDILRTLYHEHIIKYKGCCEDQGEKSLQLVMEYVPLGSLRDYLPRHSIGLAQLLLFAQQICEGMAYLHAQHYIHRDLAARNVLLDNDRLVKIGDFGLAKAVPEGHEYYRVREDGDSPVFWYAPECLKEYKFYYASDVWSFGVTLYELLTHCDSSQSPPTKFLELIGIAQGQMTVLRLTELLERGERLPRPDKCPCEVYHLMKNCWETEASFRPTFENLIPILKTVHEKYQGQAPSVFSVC

Compound	IC50 (TYK2) [nM]	IC50 (JAK1) [nM]	IC50 (JAK3) [nM]	IC50 (JAK2) [nM]
O=C1NCCCCOCc2cc(ccc2OCC2Cc3ccccc3C2)Nc2nccc(n2)-c2ccc1cc2[N+](=O)[O-] [Example 122, 4^4-((2,3-dihydro-1H-inden-2-yl)methoxy)-1^2-nitro-6-oxa-3,11-diaza-2(4,2)-pyrimidina-1(1,4),4(1,3)-dibenzenacyclododecaphan-12-one]	> 10000	> 10000	101 to 1000	> 10000
Nc1cc2ccc1-c1ccnc(n1)Nc1ccc(OC3CCCCC3)c(c1)COCCCCNC2=O [Example 47, 1^2-amino-4^4-cyclohexyloxy-6-oxa-3,11-diaza-2(4,2)-pyrimidina-1(1,4),4(1,3)-dibenzenacyclododecaphan-12-one]	1000 to 10000	1000 to 10000	11 to 100	1000 to 10000
COc1ccc2cc1COCCCCNC(=O)c1ccc(c(C)c1)-c1nc(ncc1C)N2 [Example 33, 1^2,2^5-dimethyl-4^4-methoxy-6-oxa-3,11-diaza-2(4,2)-pyrimidina-1(1,4),4(1,3)-dibenzenacyclododecaphan-12-one]	> 10000	1000 to 10000	1000 to 10000	1000 to 10000
Nc1cc2ccc1-c1ccnc(n1)Nc1ccc(N3CCOCC3)c(c1)COCCCCNC2=O [Example 31, 1^2-amino-4^4-morpholin-6-oxa-3,11-diaza-2(4,2)-pyrimidina-1(1,4),4(1,3)-dibenzenacyclododecaphan-12-one]	101 to 1000	101 to 1000	< 10	11 to 100
CC1CCNC(=O)c2ccc(c([N+](=O)[O-])c2)-c2ccnc(n2)Nc2ccc(OCC3CCCC3)c(c2)COC1 (centres unmarked) [Example 128, 4^4-(cyclopentylmethoxy)-8-methyl-1^2-nitro-6-oxa-3,11-diaza-2(4,2)-pyrimidina-1(1,4),4(1,3)-dibenzena-cyclododecaphan-12-one]	> 10000	> 10000	101 to 1000	> 10000
CC1CCNC(=O)c2ccc(c(N)c2)-c2ccnc(n2)Nc2ccc(OC3CC3)c(c2)COC1 (centres unmarked) [Example 95, 1^2-amino-4^4-cyclopropoxy-8-methyl-6-oxa-3, 11-diaza-2 (4,2)-pyrimidina-1(1,4),4(1,3)-dibenzenacyclododecaphan-12-one]	1000 to 10000	1000 to 10000	< 10	11 to 100
CC1CCNC(=O)c2ccc(c([N+](=O)[O-])c2)-c2ccnc(n2)Nc2ccc(OCC3COC3)c(c2)COC1 (centres unmarked) [Example 174, 8-methyl-1^2-nitro-4^4-(oxetan-3-yl-methoxy)-6-oxa-3-diaza-2(4,2)-py-rimidina-1(1,4),4(1,3)-dibenzena-cyclododecaphan-12-one]	> 10000	1000 to 10000	1000 to 10000	1000 to 10000
Nc1cc2ccc1-c1ccnc(n1)Nc1ccc(Oc3cnc4[nH]ccc4c3)c(c1)COCCCCNC2=O [Example 161, 4^4-((1H-pyrrolo[2,3-b]pyridin-5-yl)oxy)-1^2-amino-6-oxa-3,11-diaza-2(4,2)-pyrimidina-1(1,4),4(1,3)-di-benzenacyclododecaphan-12-one]	> 10000	1000 to 10000	1000 to 10000	1000 to 10000

The next lines start with the values.

IC50 (TYK2) [nM]	IC50 (JAK1) [nM]	IC50 (JAK3) [nM]	IC50 (JAK2) [nM]	Compound
1000 to 10000	101 to 1000	< 10	101 to 1000	CC1CCNC(=O)c2ccc(c(N)c2)-c2ccnc(n2)Nc2ccc(OCC3CC3)c(c2)COC1 (centres unmarked) [Example 145, 1^2-amino-4^4-(cyclopropylmethoxy)-8-methyl-6-oxa-3,11-diaza-2(4,2)-pyrimidina-1(1,4),4(1,3)-dibenzena-cyclododecaphan-12-one]
> 10000	> 10000	1000 to 10000	> 10000	CC1CCNC(=O)c2ccc(c([N+](=O)[O-])c2)-c2ccnc(n2)Nc2ccc(OCC3CCC3)c(c2)COC1 (centres unmarked) [Example 141, 4^4-(cyclobutylmethoxy)-8-methyl-1^2-nitro-6-oxa-3,11-diaza-2(4,2)-pyrimidina-1(1,4),4(1,3)-dibenzena-cyclododecaphan-12-one]
> 10000	1000 to 10000	101 to 1000	1000 to 10000	CN(C)C(=O)C(C)(C)Oc1ccc2cc1COCCCCNC(=O)c1ccc(c(N)c1)-c1ccnc(n1)N2 [Example 179, 2-((1^2-amino-12-oxo-6-oxa-3,11-di-aza-2(4,2)-pyrimidina-1(1,4),4(1,3)-dibenzenacyclododecaphan-4^4-yl)oxy)-N,N-trimethylpropoiona-mide]
> 10000	> 10000	1000 to 10000	> 10000	Cc1cc2ccc1-c1nc(ncc1C)Nc1cccc(c1)COCCCCNC2=O [Example 36, 1^2,2^5-dimethyl-6-oxa-3,11-diaza-2(4,2)-pyrimidina-1(1,4),4(1,3)-diben-zenacyclododecaphan-12-one]
> 10000	1000 to 10000	101 to 1000	1000 to 10000	O=C1NCCCCOCc2cc(ccc2OC2CC2)Nc2nccc(n2)-c2ccc1cc2[N+](=O)[O-] [Example 73, 4^4-cyclopropoxy-1^2-nitro-6-oxa-3,11-diaza-2(4,2)-pyrimidina-1(1,4),4(1,3)-dibenzenacyclododecaphan-12-one]
> 10000	1000 to 10000	101 to 1000	1000 to 10000	CN1CCN(c2ccc3cc2COCCCCNC(=O)c2ccc(c([N+](=O)[O-])c2)-c2ccnc(n2)N3)CC1 [Example 59, 1^2-nitro-4^4-(4-methylpiperazin-1-)-6-oxa-3,11-diaza-2(4,2)-pyrimidina-1(1,4),4(1,3)-dibenzenacyclododeca-phan-12-one]
101 to 1000	101 to 1000	11 to 100	11 to 100	O=C1NCCCCOCc2cc(cc(N3CCOCC3)c2)Nc2nccc(n2)-c2ccc1cc2F [Example 27, 1^2-fluoro-4^5-morpholin-6-oxa-3,11-diaza-2(4,2)-pyrimidina-1(1,4),4(1,3)-dibenzenacyclododecaphan-12-one]
> 10000	1000 to 10000	101 to 1000	1000 to 10000	CC1CCNC(=O)c2ccc(c([N+](=O)[O-])c2)-c2ccnc(n2)Nc2ccc(Oc3cccnc3)c(c2)COC1 (centres unmarked) [Example 129, 8-methyl-1^2-nitro-4^4-(pyridin-3-ox-yl)-6-oxa-3,11-diaza-2(4,2)-pyrimi-dina-1(1,4),4(1,3)-dibenzenacyclo-dodecaphan-12-one]
> 10000	> 10000	1000 to 10000	1000 to 10000	O=C1NCCCCCCOCc2cc(ccc2N2CCOCC2)Nc2nccc(n2)-c2ccc1cc2[N+](=O)[O-] [Example 56, 1^2-nitro-4^4-morpholin-6-oxa-3,13-di-aza-2(4,2)-pyrimidina-1(1,4),4(1,3)-dibenzenacyclotetradecaphan-14-one]
> 10000	1000 to 10000	11 to 100	1000 to 10000	CC1CCNC(=O)c2ccc(c(N)c2)-c2ccnc(n2)Nc2ccc(OCC3CCC3)c(c2)COC1 (centres unmarked) [Example 142]
> 10000	1000 to 10000	< 10	101 to 1000	CC1CCNC(=O)c2ccc(c(N)c2)-c2ccnc(n2)Nc2ccc(OCC(F)(F)F)c(c2)COC1 (centres unmarked) [Example 132]
> 10000	> 10000	> 10000	> 10000	O=C1NCCCOCc2cc(ccc2N2CCOCC2)Nc2nccc(n2)-c2ccc1cc2 [Example 13, 4^4-morpholin-6-oxa-3,11-diaza-2(4,2)-pyrimidina-1(1,4),4(1,3)-dibenzena-cycloundecaphan-11-one]
